This assay addresses T1, Phosphatidylinositol 4,5-bisphosphate 3-kinase catalytic subunit delta isoform (Homo sapiens, UniProt O00329).
T1 sequence (O00329 whole entry): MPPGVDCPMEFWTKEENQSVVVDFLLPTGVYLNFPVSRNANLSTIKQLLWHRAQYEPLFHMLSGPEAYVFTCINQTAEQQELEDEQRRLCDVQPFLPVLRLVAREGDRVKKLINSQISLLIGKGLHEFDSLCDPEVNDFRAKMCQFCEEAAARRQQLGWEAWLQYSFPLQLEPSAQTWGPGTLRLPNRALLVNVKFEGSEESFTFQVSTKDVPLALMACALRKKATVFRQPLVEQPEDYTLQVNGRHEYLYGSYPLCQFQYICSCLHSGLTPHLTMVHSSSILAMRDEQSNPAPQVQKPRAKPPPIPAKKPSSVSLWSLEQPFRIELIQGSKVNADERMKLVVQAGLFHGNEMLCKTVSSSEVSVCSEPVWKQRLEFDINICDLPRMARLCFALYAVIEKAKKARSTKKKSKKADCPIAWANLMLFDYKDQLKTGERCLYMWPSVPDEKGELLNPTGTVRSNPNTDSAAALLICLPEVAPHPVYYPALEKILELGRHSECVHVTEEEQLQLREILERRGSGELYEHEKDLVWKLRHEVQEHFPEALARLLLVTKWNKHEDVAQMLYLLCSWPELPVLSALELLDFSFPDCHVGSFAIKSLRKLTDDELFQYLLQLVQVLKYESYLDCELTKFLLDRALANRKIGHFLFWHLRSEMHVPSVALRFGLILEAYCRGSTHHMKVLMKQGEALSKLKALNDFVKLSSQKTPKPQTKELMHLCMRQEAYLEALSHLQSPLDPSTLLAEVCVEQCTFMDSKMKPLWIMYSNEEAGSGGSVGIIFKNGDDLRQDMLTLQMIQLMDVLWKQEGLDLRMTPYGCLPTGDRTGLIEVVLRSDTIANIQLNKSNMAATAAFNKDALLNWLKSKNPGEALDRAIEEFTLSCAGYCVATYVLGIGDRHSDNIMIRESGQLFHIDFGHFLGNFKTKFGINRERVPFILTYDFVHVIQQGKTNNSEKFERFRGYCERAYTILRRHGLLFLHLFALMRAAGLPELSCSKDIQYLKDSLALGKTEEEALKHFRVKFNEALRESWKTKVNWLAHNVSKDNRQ
In words: Scintillation Proximity Assay: PI3Kδ:The kinase reaction was conducted in polystyrene 384-well matrix white plate from Thermo Fisher Scientific in a final volume of 25 μL. Inhibitors were first diluted serially in DMSO and added to the plate wells before the addition of other reaction components. The final concentration of DMSO in the assay was 0.5%. The PI3K assays were carried out at room temperature in 20 mM MOPS, pH 6.7, 10 mM MgCl2, 5 mM DTT and CHAPS 0.03%. Reactions were initiated by the addition of ATP, the final reaction mixture consisted of 20 μM PIP2, 20 μM ATP, 0.2 μCi [γ-33P] ATP, 4 nM PI3Kδ. Reactions were incubated for 210 min and terminated by the addition of 40 μL SPA beads suspended in quench buffer: 150 mM potassium phosphate pH 8.0, 20% glycerol. 25 mM EDTA, 400 μM ATP. The final concentration of SPA beads was 1.0 mg/mL. After the plate sealing, plates were shaken overnight at room temperature and centrifuged at 1800 rpm for 10 minutes, the radioactivity of the product was determined by scintillation counting on Topcount (Perkin-Elmer).

For 1 compound, IC50 results are on record in ChEMBL document CHEMBL5727416, “Bicyclic heteroarylaminoalkyl phenyl derivatives as PI3K inhibitors” (2019).

Broadly, the IC50 is the concentration needed to halve the response being measured. As to `N#CCC(C1CCN(c2nc3cccnc3o2)C1)n1cc(-c2ncnc3[nH]ccc23)cn1` (stereo unspecified), the IC50 was under 10 nM.
